The values below come from patent US8906925B2, “Pyrido[4,3-B]indoles containing rigid moieties” (Medivation Technologies, Inc., priority 2008, dated 2014).

Assay [1] relates to C57Bl/6J mice. The assay can be described thus: PCP-induced hyperactivity, open field test. Particulars: p.o. 30 min prior to PCP (5.0 mg/kg i.p.), 90 min. test. The format is in vivo, mouse. Here is the method:
One exemplary model for testing the activity of one or more compounds described herein to treat and/or prevent and/or delay the onset and/or development of schizophrenia employs phencyclidine (PCP), which is administered to the animal (e.g., non-primate (rat) or primate (monkey)), resulting in dysfunctions similar to those seen in schizophrenic humans. See Jentsch et al., 1997, Science 277:953-955 and Piercey et al., 1988, Life Sci. 43(4):375-385). Standard experimental protocols may be employed in this or in other animal models. One protocol involves PCP-induced hyperactivity.
Male C57Bl/6J mice from Jackson Laboratories (Bar Harbor, Me.) were used. Mice were received at 6-weeks of age. Upon receipt, mice were assigned unique identification numbers (tail marked) and were group housed with 4 mice/cage in OPTIMICE ventilated cages. All animals remained housed in groups of four during the remainder of the study. All mice were acclimated to the colony room for at least two weeks prior to testing and were subsequently tested at an average age of 8 weeks of age. During the period of acclimation, mice were examined on a regular basis, handled, and weighed to assure adequate health and suitability. Animals were maintained on a 12 h/12 h light/dark cycle. The room temperature was maintained between 20 and 23° C. with a relative humidity maintained between 30% and 70%. Food and water were provided ad libitum for the duration of the study. In each test, animals were randomly assigned across treatment groups.
The following compounds were used for this study: 1) Compound Nos 83, 88, 90 (0.03, 0.1, 0.3, 1, 3, 10 & 30 mg/kg) was dissolved in 5% PEG-200 in sterile water and administered p.o. 30 min prior to PCP injection; 2) Clozapine (1.0 mg/kg) was dissolved in 10% DMSO and administered i.p. 30 min prior to phencyclidine (PCP) injection; 3) PCP (5.0 mg/kg) was dissolved in sterile water and administered i.p. immediately before the 60 min. test. All compounds were administered at a dose volume of 10 mL/kg.
The open filed (OF) test assesses locomotor behavior, i.e. to measure mouse locomotor activity at baseline and in response to pharmacological agents. The open field chambers are Plexiglas square chambers (27.3×27.3×20.3 cm; Med Associates Inc., St Albans, Vt.) surrounded by infrared photobeams (16×16×16) to measure horizontal and vertical activity. […] Distance traveled was measured from horizontal beam breaks as the mouse moved whereas rearing activity was measured from vertical beam breaks. […]
Data were analyzed by analysis of variance (ANOVA) followed by post-hoc comparisons with Fisher Tests when appropriate. Baseline activity was measured during the first 30 min. of the test prior to PCP injection. PCP-induced activity was measured during the 60 min. following PCP injection. […]

Assay [2] deals with male Wistar rat. Briefly: Conditioned avoidance response (CAR) model. The format is in vivo. Particulars: 0.1, 0.3, 1, 3, 10 and 20 mg/kg, p.o. Here is the method: All currently approved antipsychotic agents (typical and atypical) are known to have the ability to selectively suppress conditioned avoidance response (CAR) behavior in the rat. This evidence makes CAR one of the primary tests to assess antipsychotic activity of novel compounds.
The effects of Compound Nos. 83, 88 and 90, at concentrations including 0.1, 0.3, 1, 3, 10 and 20 mg/kg, p.o., in the conditioned avoidance response model were assessed in the male Wistar rat. Risperidone (0.3 mg/kg, s.c.) was used in the present study as a positive reference compound.
For each testing session, animals were first placed for a 4-min. habituation period in a shuttlebox with an electrified grid floor. Then, rats were submitted to 30 trials spaced by intertribal intervals varying at random between 20 and 30 sec. Each trial consisted of a 10-sec. light stimulus (conditioned stimulus, CS) followed by a 10-sec. electric foot shock (unconditioned stimulus, US) in presence of the light presented in the compartment where the rat is located. If the animal moved to the other compartment during the initial 10-sec. of the trial, the light was terminated (no shock was delivered) and the response was recorded as an avoidance response. If the rat changed compartment during the foot shock, the light and the shock were terminated and the response was recorded as an unconditioned response. […] If a response was made during an intertrial interval, the response was recorded as an intertrial crossing. Training was performed 5 days per week with one session of 30 trials per day, until rats reached the performance criterion of 80% of avoidance response on at least two consecutive daily sessions. […] A minimal wash-out period of 48 hours was allowed between 2 treatments. During the wash-out period, animals were trained until they recovered an avoidance performance of at least 80%.
Statistical analysis was performed using a Friedman two-way ANOVA by ranks followed by the Wilcoxon matched-pairs signed-ranks test to test each dose of the test compound administered versus vehicle control treated rats.

Assay [3] addresses human dopamine D2L receptor (Homo sapiens, UniProt P14416). The assay can be described thus: cAMP functional assay, dopamine D2L (CHO-K1, HTRF). Format: cell-based. Also on record: host or cells: CHO-K1 co-expressing mitochondrial apoaequorin and Gα16. Particulars: for inhibition at 0.005 µM: antagonist concentration 5 nM; for inhibition at 0.05 µM: antagonist concentration 50 nM; for inhibition at 0.5 µM: antagonist concentration 500 nM; for inhibition at 5 µM: antagonist concentration 5000 nM; for inhibition at 15 µM: antagonist concentration 15000 nM. The source says: To study the functional activity of compounds of the invention on the human recombinant dopamine D2L with Aequorin, GTPγS and cAMP functional assays and on the human recombinant serotonin 5-HT2A receptor with Aequorin, CHO-K1 cell lines expressing D2L or 5-HT2A recombinant receptor, mitochondrial apoaequorin and Gα16 were used for the Aequorin assay. CHO-K1 cell line expressing the recombinant D2L receptor was used for the cAMP assay and was amplified to prepare membranes used for the GTPγS assay.
The test was performed in 96 well plates. For agonist testing, 12 μL of cells (2,500 cells/well) were mixed with 6 μL of increasing concentrations of test compound or reference agonist and 6 μL of Forskolin […] (Calbiochem, cat n^o 344270). For antagonist testing, 12 μL of cells (2,500 cells/well) were mixed with 6 μL of test compound or reference antagonist at increasing concentrations. After incubation of 10 min at room temperature, 6 μL of a mix of Forskolin […] final concentration and the reference agonist at a final concentration corresponding to the EC80 were added. The plates were then incubated for 30 min at room temperature.
For orientation: In TR-FRET formats the signal depends on donor and acceptor labels being close together.

Setting [4] is: antagonist concentration 150 nM.
The mark [5] stands for this setting: antagonist concentration 1500 nM.

The structures appear in SMILES notation.

Sequence of human dopamine D2L receptor (P14416 whole entry): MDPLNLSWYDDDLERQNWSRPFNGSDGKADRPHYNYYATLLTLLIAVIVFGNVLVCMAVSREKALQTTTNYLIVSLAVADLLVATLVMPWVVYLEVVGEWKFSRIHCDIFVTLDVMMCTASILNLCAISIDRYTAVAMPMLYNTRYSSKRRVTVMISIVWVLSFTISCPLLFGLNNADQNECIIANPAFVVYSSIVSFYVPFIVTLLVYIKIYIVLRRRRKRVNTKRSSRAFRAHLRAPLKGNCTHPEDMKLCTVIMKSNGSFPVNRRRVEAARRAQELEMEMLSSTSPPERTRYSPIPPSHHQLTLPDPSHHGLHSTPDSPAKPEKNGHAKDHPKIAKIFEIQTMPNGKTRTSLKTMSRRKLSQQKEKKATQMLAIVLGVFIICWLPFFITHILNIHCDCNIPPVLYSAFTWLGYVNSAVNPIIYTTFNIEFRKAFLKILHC

A word on the inhibition: it is the drop in the measured response relative to a control, in per cent. As for `C/C(=C\n1c2c(c3cc(Cl)ccc31)CN(C)CC2)c1ccncc1` [Compound 90, (E)-8-chloro-2,3,4,5-tetrahydro-2-methyl-5-(2-(pyridin-4-yl)prop-1-enyl)-1H-pyrido[4,3-b]indole], the “Total Distance Traveled (center+periphery), ANOVA” value (“Total Distance Traveled” for short) in assay [1] is “significant treatment effect”. The “number of avoidance responses versus pretreatment, compared to vehicle” value in assay [2] is “significantly and dose-dependently decreased”. In assay [3], the inhibition at 0.005 µM worked out at 84.1%, the inhibition at 0.05 µM is 94.7%, the inhibition at 0.5 µM was found to be 93.7% and the inhibition at 5 µM is 100%. In assay [3], the inhibition at 15 µM was determined as 102%. Moreover, the inhibition at […] in assay [3] (antagonist concentration 15 nM) was 91.7%. Further, in assay [3] (setting [4]), the inhibition at […] was 94%. The inhibition at […] in assay [3] (setting [5]) is 100%.
Consider `C/C(=C\n1c2c(c3cc(Cl)ccc31)CN(C)CC2)c1ccc(F)cc1` [Compound 83, (E)-8-chloro-5-(2-(4-fluorophenyl)prop-1-enyl)-2,3,4,5-tetrahydro-2-methyl-1H-pyrido[4,3-b]indole], for which, in assay [1], the “Total Distance Traveled” value is given as “significant treatment effect” and the “Total Rearing (center+periphery), ANOVA” value was “significant treatment effect”. Further, the “number of avoidance responses versus pretreatment, compared to vehicle” value in assay [2] was “significantly and dose-dependently decreased”. Besides, in assay [3], the inhibition at 0.005 µM amounted to 75.5%, the inhibition at 0.05 µM stood at 98.2%, the inhibition at 0.5 µM came out at 106% and the inhibition at 5 µM worked out at 106%. Also, in assay [3], the inhibition at 15 µM was 111%. Besides, the inhibition at […] in assay [3] (antagonist concentration 15 nM) is 97.8%. Further, the inhibition at […] in assay [3] (setting [4]) is 104%. In addition, the inhibition at […] in assay [3] (setting [5]) was 107%.
Turning to `C/C(=C\n1c2c(c3cc(C)ccc31)CN(C)CC2)c1ccncc1` [Compound 88, (E)-2,3,4,5-tetrahydro-2,8-dimethyl-5-(2-(pyridin-4-yl)prop-1-enyl)-1H-pyrido[4,3-b]indole], the “Total Distance Traveled” value in assay [1] is reported as “significant treatment effect”. In assay [2], the “number of avoidance responses versus pretreatment, compared to vehicle” value is “significantly and dose-dependently decreased”.
